From US20020016341A1, “Heterocyclic thioester and ketone hair growth compositions and uses” (priority 1998, published 2002)

The molecules below were run on C57 black 6 mice (assay: In vivo hair generation test, Experiment B). Details: one micromole per milliliter topical, three times per week, 14 days after initiation of treatment.
Experimental: Care was taken not to nick or cause abrasion to the underlying dermal layers. The animals were in anagen growth phase when shaved. […] The animals were treated three times per week, and hair growth was evaluated 14 days after initiation of treatment.

Row | Molecule | hair growth (relative hair growth index, FIG. 5)
1 | CCC(C)(C)C(=O)C(=O)N1CCC[C@H]1C(=O)SCCC(c1ccccc1)c1ccccc1 [GPI 1234] | dramatic hair growth

Each molecule was assayed on C57 black 6 mice (assay: In vivo hair generation test, Experiment A). Details: 30 μM topical, 3 applications over 5 days, after six weeks.
Excerpt: Care was taken not to nick or cause abrasion to the underlaying dermal layers. The animals were in anagen growth phase, as indicated by the pinkish color of the skin. […] Hair growth was quantitated by the percent of shaved area covered by new hair growth during this time period.

Row | Molecule | hair regrowth in shaved area
2 | CCC(C)(C)C(=O)C(=O)N1CCC[C@H]1C(=O)OCCCc1cccnc1 [GPI 1046, 3-(3-pyridyl)-1-propyl (2s)-1-(3,3-dimethyl-1,2-dioxopentyl)-2-pyrrolidinecarboxylate] | essentially complete hair regrowth

Each molecule was assayed against FKBP12 (Homo sapiens, UniProt P62942) (assay: Ki test: inhibition of peptidyl-prolyl isomerase (rotamase) activity, chymotrypsin-coupled assay). Details: not given.
Format: biochemical
Excerpt: The inhibition of the prolyl peptidyl cis-trans isomerase activity of FKBP may be measured as an indicator of this affinity.
Inhibition of the peptidyl-prolyl isomerase (rotamase) activity of the compounds used in the inventive methods and pharmaceutical compositions can be evaluated by known methods described in the literature (Harding et al., Nature, 1989, 341:758-760; Holt et al. J. Am. Chem. Soc., 115:9923-9938).
The cis-trans isomerization of an alanine-proline bond in a model substrate, N-succinyl-Ala-Ala-Pro-Phe-p-nitroanilide, is monitored spectrophotometrically in a chymotrypsin-coupled assay, which releases paranitroanilide from the trans form of the substrate. The inhibition of this reaction caused by the addition of different concentrations of inhibitor is determined, and the data is analyzed as a change in first-order rate constant as a function of inhibitor concentration to yield the apparent K1 values.
In a plastic cuvette are added […] of ice cold assay buffer (25 mM HEPES, pH 7.8, 100 mM NaCl), 10 mL of FKBP (2.5 mM in 10 mM Tris-Cl pH 7.5, 100 mM NaCl, 1 mM dithiothreitol), 25 mL of chymotrypsin (50 mg/ml in 1 mM HCl) and […] of test compound at various concentrations in dimethyl sulfoxide. The reaction is initiated by the addition of 5 mL of substrate (succinyl-Ala-Phe-Pro-Phe-para-nitroanilide, 5 mg/mL in 2.35 mM LiCl in trifluoroethanol).
The absorbance at 390 nm versus time is monitored for 90 seconds using a spectrophotometer and the rate constants are determined from the absorbance versus time data files.

FKBP12, sequence (P62942 whole entry, species assumed): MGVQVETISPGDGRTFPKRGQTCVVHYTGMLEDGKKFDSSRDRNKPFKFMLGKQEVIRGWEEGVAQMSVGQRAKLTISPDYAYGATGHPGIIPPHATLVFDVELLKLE

Row | Molecule | Ki [nM]
3 | O=C(C(=O)N1CCCCC1C(=O)CCCCCc1ccccc1)C1CCCCC1 (centres unmarked) [Compound 68] | 284
4 | CC(C)(C)C(=O)C(=O)N1CCCCC1C(=O)C(CCc1ccccc1)CCc1ccccc1 (centres unmarked) [Compound 69] | 49

Same assay, conditions: apparent Ki, rotamase inhibition; read-out: Ki

Row | Molecule | Ki [nM]
5 | 1,5-Diphenyl-3-pentyl 1-(3,3-dimethyl-1,2-dioxopentyl)-2-piperidinecarbothioate [Compound 40] | 1230
6 | 2,2-Diphenylethyl (2S)-1-(3,3-dimethyl-2-oxopentanoyl)-2-piperidinecarbothioate [Compound 49] | 1330
7 | 2-Phenyl-1-ethyl 1-(2-phenyl-1,2-dioxoethyl)-2-piperidinecarbothioate [Compound 14] | 313
8 | 2-Phenyl-1-ethyl 1-(3,3-dimethyl-1,2-dioxopentyl)-2-piperidinecarbothioate [Compound 10] | 12
9 | 2-Phenyl-1-ethyl (2S)-1-(1-cyclopentyl-1,2-dioxoethyl)-2-pyrrolidinecarbothioate [Compound 28] | 108
10 | 2-Phenyl-1-ethyl (2S)-1-(2-cyclohexyl-1,2-dioxoethyl)-2-pyrrolidinecarbothioate [Compound 12] | 442
11 | 3-(1-Naphthyl)-1-propyl 1-(3,3-dimethyl-1,2-dioxopentyl)piperidine-2-carbothioate [Compound 44] | 188
12 | 3-(1-Naphthyl)propyl (2S)-1-(3,3-dimethyl-2-oxopentanoyl)-2-pyrrolidinecarbothioate [Compound 47] | 21
13 | 3-(2-Chlorophenyl)propyl (2S)-1-(3,3-dimethyl-2-oxopentanoyl)-2-pyrrolidinecarbothioate [Compound 61] | 139
14 | 3-(2-Fluorophenyl)propyl (2S)-1-(3,3-dimethyl-2-oxopentanoyl)-2-pyrrolidinecarbothioate [Compound 57] | 57
15 | 3-(3-Chlorophenyl)propyl (2S)-1-(3,3-dimethyl-2-oxopentanoyl)-2-pyrrolidinecarbothioate [Compound 54] | 37
16 | 3-(3-Fluorophenyl)propyl 1-(3,3-dimethyl-2-oxopentanoyl)-2-piperidinecarbothioate [Compound 64] | 163
17 | 3-(3-Fluorophenyl)propyl (2S)-1-(3,3-dimethyl-2-oxopentanoyl)-2-pyrrolidinecarbothioate [Compound 58] | 79
18 | 3-(3-Pyridyl)-1-propyl (2S)-1-(2-cyclohexyl-1,2-dioxoethyl)-2-pyrrolidinecarbothioate [Compound 35] | 62
19 | 3-(para-Methoxyphenyl)-1-propyl 1-(2-phenyl-1,2-dioxoethyl)piperidine-2-carbothioate [Compound 43] | 259
20 | 3-Phenyl-1-propyl 1-(3,3-dimethyl-1,2-dioxobutyl)-2-piperidinecarbothioate [Compound 29] | 59
21 | 3-Phenyl-1-propyl (2S)-1-(2-cyclohexyl-1,2-dioxoethyl)-2-pyrrolidinecarbothioate [Compound 32] | 362
22 | 3-Phenylpropyl 1-(3,3-dimethyl-2-oxopentanoyl)-2-piperidinecarbothioate [Compound 60] | 90
23 | 4,4-Di(para-fluorophenyl)butyl 1-(3,3-dimethyl-2-oxopentanoyl)-2-pyrrolidinecarbothioate [Compound 46] | 757
24 | 4-Phenyl-1-butyl 1-(1,2-dioxo-3,3-dimethylbutyl)-2-piperidinecarbothioate [Compound 39] | 347
25 | 4-Phenyl-1-butyl (2S)-1-(2-cyclohexyl-1,2-dioxoethyl)-2-pyrrolidinecarbothioate [Compound 33] | 1700
26 | 4-Phenyl-1-butyl (2S)-1-(3,3-dimethyl-1,2-dioxopentyl)-2-pyrrolidinecarbothioate [Compound 34] | 34
27 | 4-Phenylbutyl 1-(3,3-dimethyl-2-oxopentanoyl)-2-piperidinecarbothioate [Compound 59] | 962
28 | CCC(C)(C)C(=O)C(=O)N1CCC[C@H]1C(=O)CCCCc1ccccc1 [Compound 1] | 31
29 | CCC(C)(C)C(=O)C(=O)N1CCC[C@H]1C(=O)SCc1csc2ccccc12 [Compound 11, (3-Thioindolyl)methyl (2S)-1-(3,3-dimethyl-1,2-dioxopentyl)-2-pyrrolidinecarbothioate] | 299
30 | CCC(C)(C)C(=O)C(=O)N1CCC[C@H]1C(=O)SCCC(c1ccc(F)cc1)c1ccc(F)cc1 [Compound 45, 3,3-Di(para-fluoro)phenyl-1-propyl (2S)-1-(3,3-dimethyl-1,2-dioxopentyl)-2-pyrrolidinecarbothioate] | 31
31 | CCC(C)(C)C(=O)C(=O)N1CCCCC1C(=O)SCCCc1ccc2ccccc2c1 [Compound 53, 3-(2-Naphthyl)propyl (2R,S)-1-(3,3-dimethyl-2-oxopentanoyl)-2-piperidinecarbothioate] | 261
32 | CCC(C)(C)C(=O)C(=O)N1CCC[C@H]1C(=O)CCCC(c1ccc(F)cc1)c1ccc(F)cc1 [Compound 70, 1-{(2S)-2-[5,5-di(4-Fluorophenyl)pentanoyl]-2-pyrrolidine}-3,3-dimethyl-1,2-pentanedione] | 457
